Consider 55 molecules from patent US11352363B1, “Spiropyrrolidine derived antiviral agents” (Enanta Pharmaceuticals, Inc., priority 2020, dated 2022).

Like-named read-outs stand apart in the source and are kept apart here.

In this assay the target is SARS-CoV-2 3CL-protease (Severe acute respiratory syndrome coronavirus 2 (2019-nCoV) (SARS-CoV-2), UniProt P0DTD1). The assay can be described thus: SARS-CoV-2 3C-like (3CL) protease fluorescence assay (FRET). The format is biochemical.

As usually defined, the IC50 is the midpoint of a concentration-inhibition curve. As for `CC(C)C[C@@H](C(=O)N1C[C@]2(C[C@H]1C#N)C(=O)Nc1ccccc12)N(C)C(=O)c1cc2c(F)cccc2[nH]1` [Compound 44], under “read-out: FRET IC50”, the IC50 is < 0.1 µM.

Regarding `CC(C)C[C@@H](C(=O)N1C[C@]2(C[C@H]1C#N)C(=O)Nc1ccccc12)N(C)C(=O)c1cc2c(C3CC3)cccc2[nH]1` [Compound 45], the half-inhibitory concentration (IC50) (read-out: FRET IC50) was < 0.1 µM.

With `CC(C)C[C@@H](C(=O)N1C[C@]2(C[C@H]1C#N)C(=O)Nc1ccccc12)N(C)C(=O)c1cc2c(F)cc(F)cc2[nH]1` [Compound 46], the IC50 (read-out: FRET IC50) is < 0.1 µM. Consider `Cc1c(C(=O)N(C)[C@@H](CC(C)C)C(=O)N2C[C@]3(C[C@H]2C#N)C(=O)Nc2ccccc23)[nH]c2cc(F)cc(F)c12` [Compound 47], for which the IC50 (read-out: FRET IC50) was < 0.1 µM. Regarding `CC(C)C[C@@H](C(=O)N1C[C@]2(C[C@H]1C#N)C(=O)Nc1ccccc12)N(C)C(=O)c1[nH]c2ccccc2c1-c1ccccc1` [Compound 48], the IC50 (read-out: FRET IC50) fell in the range of 0.1 to 1 µM.

`CC(C)C[C@@H](C(=O)N1C[C@]2(C[C@H]1C#N)C(=O)Nc1ccccc12)N(C)C(=O)c1cc2c(OC(F)(F)F)cccc2[nH]1` [Compound 49]: the IC50 (read-out: FRET IC50) is < 0.1 µM.

Regarding `CC(C)C[C@@H](C(=O)N1C[C@]2(C[C@H]1C#N)C(=O)Nc1ccccc12)N(C)C(=O)c1cc2ccc(F)cc2[nH]1` [Compound 50], for the setting “read-out: FRET IC50”, the IC50 is < 0.1 µM. Same read-out and setting: for `CC(C)C[C@@H](C(=O)N1C[C@]2(C[C@H]1C#N)C(=O)Nc1ccccc12)N(C)C(=O)c1cc2c(OC(F)F)cccc2[nH]1` [Compound 51] the value was < 0.1 µM; for `COc1cccc2c1cc(C(=O)N(C)[C@@H](CC(C)C)C(=O)N1C[C@]3(C[C@H]1C#N)C(=O)Nc1ccccc13)n2C` [Compound 53], < 0.1 µM.

For `CC(C)C[C@@H](C(=O)N1C[C@]2(C[C@H]1C#N)C(=O)Nc1ccccc12)N(C)C(=O)c1cc2cc(-c3ccccc3)ccc2[nH]1` [Compound 54], the IC50 (read-out: FRET IC50) was < 0.1 µM. With `CC(C)C[C@@H](C(=O)N1C[C@]2(C[C@H]1C#N)C(=O)Nc1ccccc12)N(C)C(=O)c1cc2ccc(-c3ccccc3)cc2[nH]1` [Compound 55], the IC50 (read-out: FRET IC50) was < 0.1 µM. Same read-out and setting: for `CC(C)C[C@@H](C(=O)N1C[C@]2(C[C@H]1C#N)C(=O)Nc1ccccc12)N(C)C(=O)c1cc2cc(C(C)(C)C)ccc2[nH]1` [Compound 56] the value was < 0.1 µM; for `CC(C)C[C@@H](C(=O)N1C[C@]2(C[C@H]1C#N)C(=O)Nc1ccccc12)N(C)C(=O)c1cc2ccc(C(C)(C)C)cc2[nH]1` [Compound 57], < 0.1 µM. Same read-out and setting: for `COc1ccc(Cl)c(C(=O)N(C)[C@@H](CC(C)C)C(=O)N2C[C@]3(C[C@H]2C#N)C(=O)Nc2ccccc23)c1` [Compound 58] the value was < 0.1 µM; for `CC(C)C[C@@H](C(=O)N1C[C@]2(C[C@H]1C#N)C(=O)Nc1ccccc12)N(C)C(=O)c1ncccc1Cl` [Compound 59], < 0.1 µM. Still for that read-out and setting: next, `CC(C)C[C@@H](C(=O)N1C[C@]2(C[C@H]1C#N)C(=O)Nc1ccccc12)N(C)C(=O)c1cncc(C#N)c1` [Compound 60]: < 0.1 µM. As to `CC(C)C[C@@H](C(=O)N1C[C@]2(C[C@H]1C#N)C(=O)Nc1ccccc12)N(C)C(=O)c1ccc(F)cc1Cl` [Compound 61], under “read-out: FRET IC50”, the IC50 was < 0.1 µM. Turning to `CC(C)C[C@@H](C(=O)N1C[C@]2(C[C@H]1C#N)C(=O)Nc1ccccc12)N(C)C(=O)c1cc(F)ccc1Cl` [Compound 62], the IC50 (read-out: FRET IC50) is < 0.1 µM.

Consider `CC(C)C[C@@H](C(=O)N1C[C@]2(C[C@H]1C#N)C(=O)Nc1ccccc12)N(C)C(=O)c1ccc(F)c(Cl)c1` [Compound 63], for which the IC50 (read-out: FRET IC50) was < 0.1 µM. `CC(C)C[C@@H](C(=O)N1C[C@]2(C[C@H]1C#N)C(=O)Nc1ccccc12)N(C)C(=O)c1c(Cl)cccc1Cl` [Compound 64]: for the setting “read-out: FRET IC50”, the IC50 is < 0.1 µM. Turning to `CC(C)C[C@@H](C(=O)N1C[C@]2(C[C@H]1C#N)C(=O)Nc1ccccc12)N(C)C(=O)c1cc2c(Cl)cccc2[nH]1` [Compound 65], the IC50 (read-out: FRET IC50) is < 0.1 µM. On the same count and under the same terms, for `CC(C)C[C@@H](C(=O)N1C[C@]2(C[C@H]1C#N)C(=O)Nc1ccccc12)N(C)C(=O)c1cc2c(Br)ccc(Cl)c2[nH]1` [Compound 66] the value was < 0.1 µM; for `CC(C)C[C@@H](C(=O)N1C[C@]2(C[C@H]1C#N)C(=O)Nc1ccccc12)N(C)C(=O)c1cc2c(C#N)cccc2[nH]1` [Compound 67], < 0.1 µM. Regarding `CC(C)C[C@@H](C(=O)N1C[C@]2(C[C@H]1C#N)C(=O)Nc1ccccc12)N(C)C(=O)c1cc2cc(F)cc(F)c2[nH]1` [Compound 68], the IC50 was < 0.1 µM. As to `CC(C)C[C@@H](C(=O)N1C[C@]2(C[C@H]1C#N)C(=O)Nc1ccccc12)N(C)C(=O)c1cc2cc(F)c(F)cc2[nH]1` [Compound 69], the half-maximal inhibitory concentration (IC50) (read-out: FRET IC50) is < 0.1 µM. As to `CC(C)C[C@@H](C(=O)N1C[C@]2(C[C@H]1C#N)C(=O)Nc1ccccc12)N(C)C(=O)c1cc2cc(F)ccc2[nH]1` [Compound 70], the IC50 (read-out: FRET IC50) was < 0.1 µM. Turning to `CC(C)C[C@@H](C(=O)N1C[C@]2(C[C@H]1C#N)C(=O)Nc1ccccc12)N(C)C(=O)c1cc2c(F)ccc(F)c2[nH]1` [Compound 71], where the note is “read-out: FRET IC50”, the IC50 was < 0.1 µM. For `CC(C)C[C@@H](C(=O)N1C[C@]2(C[C@H]1C#N)C(=O)Nc1ccccc12)N(C)C(=O)c1cc2c(Cl)cc(F)cc2[nH]1` [Compound 72], the IC50 (read-out: FRET IC50) was < 0.1 µM.

In the case of `CC(C)C[C@@H](C(=O)N1C[C@]2(C[C@H]1C#N)C(=O)Nc1ccccc12)N(C)C(=O)c1cc2c(F)c(Cl)ccc2[nH]1` [Compound 73], the IC50 (read-out: FRET IC50) is < 0.1 µM. In the case of `CC(C)C[C@@H](C(=O)N1C[C@]2(C[C@H]1C#N)C(=O)Nc1ccccc12)N(C)C(=O)c1cc2c(Cl)cc(Cl)cc2[nH]1` [Compound 74], the IC50 (read-out: FRET IC50) was < 0.1 µM. Same read-out and setting: for `CC(C)C[C@@H](C(=O)N1C[C@]2(C[C@H]1C#N)C(=O)Nc1ccccc12)N(C)C(=O)c1n[nH]c2ccccc12` [Compound 75] the value was < 0.1 µM; for `CC(C)C[C@@H](C(=O)N1C[C@]2(C[C@H]1C#N)C(=O)Nc1ccccc12)N(C)C(=O)c1cc2cc(Cl)cc(Cl)c2[nH]1` [Compound 76], < 0.1 µM.

As for `CC(C)C[C@@H](C(=O)N1C[C@]2(C[C@H]1C#N)C(=O)Nc1ccccc12)N(C)C(=O)c1[nH]c2ccc(F)cc2c1Cl` [Compound 77], for the setting “read-out: FRET IC50”, the IC50 was in the range of 0.1 to 1 µM. On the same count and under the same terms, for `CC(C)C[C@@H](C(=O)N1C[C@]2(C[C@H]1C#N)C(=O)Nc1ccccc12)N(C)C(=O)c1cc2ccccc2[nH]1` [Compound 78] the value was < 0.1 µM; for `CC(C)C[C@@H](C(=O)N1C[C@]2(C[C@H]1C#N)C(=O)Nc1ccccc12)N(C)C(=O)c1cc2c(Br)cccc2[nH]1` [Compound 79], < 0.1 µM. Still for that read-out and setting: next, `CN(C(=O)c1cc2c(F)cccc2[nH]1)[C@@H](Cc1ccccc1)C(=O)N1C[C@]2(C[C@H]1C#N)C(=O)Nc1ccccc12` [Compound 80]: < 0.1 µM; `CN(C(=O)c1cc2c(F)cc(F)cc2[nH]1)[C@@H](Cc1ccccc1)C(=O)N1C[C@]2(C[C@H]1C#N)C(=O)Nc1ccccc12` [Compound 81]: < 0.1 µM. For `CC(C)C[C@@H](C(=O)N1C[C@]2(C[C@H]1C#N)C(=O)Nc1ccccc12)N(C)C(=O)c1cc2c(OC3CC3)cccc2[nH]1` [Compound 82], the IC50 (read-out: FRET IC50) was < 0.1 µM. On the same count and under the same terms, next, `CC(C)C[C@@H](C(=O)N1C[C@]2(C[C@H]1C#N)C(=O)Nc1ccccc12)N(C)C(=O)c1cc2c(F)c(F)c(F)cc2[nH]1` [Compound 83]: < 0.1 µM; `CC(C)C[C@@H](C(=O)N1C[C@]2(C[C@H]1C#N)C(=O)Nc1ccccc12)N(C)C(=O)c1cc2cc(C(C)C)ccc2[nH]1` [Compound 84]: < 0.1 µM. Same read-out and setting: for `COc1cccc2[nH]c(C(=O)N(C)[C@@H](CC(C)(C)C)C(=O)N3C[C@]4(C[C@H]3C#N)C(=O)Nc3ccccc34)cc12` [Compound 85] the value was < 0.1 µM; for `CN(C(=O)c1cc2c(F)c(F)ccc2[nH]1)[C@@H](CC(C)(C)C)C(=O)N1C[C@]2(C[C@H]1C#N)C(=O)Nc1ccccc12` [Compound 86], < 0.1 µM; for `CN(C(=O)c1cc2c(F)cccc2[nH]1)[C@@H](CC(C)(C)C)C(=O)N1C[C@]2(C[C@H]1C#N)C(=O)Nc1ccccc12` [Compound 87], < 0.1 µM. As to `CN(C(=O)c1cc2c(F)cc(F)cc2[nH]1)[C@@H](CC(C)(C)C)C(=O)N1C[C@]2(C[C@H]1C#N)C(=O)Nc1ccccc12` [Compound 88], the IC50 (read-out: FRET IC50) is < 0.1 µM.

With `CN(C(=O)OCc1ccccc1)[C@@H](CC1CCC1)C(=O)N1C[C@]2(C[C@H]1C#N)C(=O)Nc1ccccc12` [Compound 89], for the setting “read-out: FRET IC50”, the IC50 is < 0.1 µM. On to `CCN(C(=O)OCc1ccccc1)[C@@H](CC(C)C)C(=O)N1C[C@]2(C[C@H]1C#N)C(=O)Nc1ccccc12` [Compound 90], for which, where the note is “read-out: FRET IC50”, the IC50 is < 0.1 µM. Regarding `CN(C(=O)c1cc2c(F)cc(F)cc2[nH]1)[C@@H](CC1CCC1)C(=O)N1C[C@]2(C[C@H]1C#N)C(=O)Nc1ccccc12` [Compound 91], for the setting “read-out: FRET IC50”, the IC50 was < 0.1 µM. On the same count and under the same terms, next, `COc1cccc2[nH]c(C(=O)N(C)[C@@H](CC3CCC3)C(=O)N3C[C@]4(C[C@H]3C#N)C(=O)Nc3ccccc34)cc12` [Compound 92]: < 0.1 µM; `CN(C(=O)c1cc2c(F)cccc2[nH]1)[C@@H](CC1CCC1)C(=O)N1C[C@]2(C[C@H]1C#N)C(=O)Nc1ccccc12` [Compound 93]: < 0.1 µM.

`CN(C(=O)c1cc2c(OC3CC3)cccc2[nH]1)[C@@H](CC1CCC1)C(=O)N1C[C@]2(C[C@H]1C#N)C(=O)Nc1ccccc12` [Compound 94]: where the note is “read-out: FRET IC50”, the IC50 was < 0.1 µM. Still for that read-out and setting: for `CCN(C(=O)c1cc2c(F)cccc2[nH]1)[C@@H](CC(C)C)C(=O)N1C[C@]2(C[C@H]1C#N)C(=O)Nc1ccccc12` [Compound 95] the value was < 0.1 µM. Still for that read-out and setting: next, `C=CCN(C(=O)OCc1ccccc1)[C@@H](CC(C)C)C(=O)N1C[C@]2(C[C@H]1C#N)C(=O)Nc1ccccc12` [Compound 96]: < 0.1 µM. Still for that read-out and setting: for `CCCN(C(=O)OCc1ccccc1)[C@@H](CC(C)C)C(=O)N1C[C@]2(C[C@H]1C#N)C(=O)Nc1ccccc12` [Compound 97] the value was < 0.1 µM. Take `CCCN(C(=O)c1cc2c(F)cccc2[nH]1)[C@@H](CC(C)C)C(=O)N1C[C@]2(C[C@H]1C#N)C(=O)Nc1ccccc12` [Compound 98]: the IC50 (read-out: FRET IC50) is < 0.1 µM. Still for that read-out and setting: for `CCCN(C(=O)c1cc2c(F)cc(F)cc2[nH]1)[C@@H](CC(C)C)C(=O)N1C[C@]2(C[C@H]1C#N)C(=O)Nc1ccccc12` [Compound 99] the value was < 0.1 µM.
